According to EP3046573B1, “AMYLIN ANALOGUES” (Zealand Pharma A/S, priority 2013, dated 2015):
Numbered stars: 1 amine (or outer) side, 2 acyl side, 3 side chain; on linkers, the order of the positions; unused ones are H or OH. Bridge positions count the residues as written; N and C are the ends. Square brackets hold non-standard residues; d marks the D form. Peptide text beside a SMILES is read from it. * marks the point of attachment. C20 diacid = O=C(O)CCCCCCCCCCCCCCCCCCC(=O)*; γGlu = O=C(O)[C@H](CCC(=O)[*:2])N[*:1]; Hyp = O=C(O)[C@@H]1C[C@@H](O)CN1; NMeI = CC[C@H](C)[C@H](NC)C(=O)O; Sar = CNCC(=O)O

Tests used:
[1] = molecular target: T1, human calcitonin receptor (hCTR2) (Homo sapiens, UniProt P30988); test: hCTR2 assay: induction of cAMP (AlphaScreen cAMP Assay kit) in COS7 cells expressing hCTR2; format: cell-based; settings: cAMP induction in COS7 cells expressing hCTR2; average of a minimum of 3 determinations; read-out: hCTR2 EC50
T1 construct: expressed in transfected cells
T1 sequence (P30988 25-474): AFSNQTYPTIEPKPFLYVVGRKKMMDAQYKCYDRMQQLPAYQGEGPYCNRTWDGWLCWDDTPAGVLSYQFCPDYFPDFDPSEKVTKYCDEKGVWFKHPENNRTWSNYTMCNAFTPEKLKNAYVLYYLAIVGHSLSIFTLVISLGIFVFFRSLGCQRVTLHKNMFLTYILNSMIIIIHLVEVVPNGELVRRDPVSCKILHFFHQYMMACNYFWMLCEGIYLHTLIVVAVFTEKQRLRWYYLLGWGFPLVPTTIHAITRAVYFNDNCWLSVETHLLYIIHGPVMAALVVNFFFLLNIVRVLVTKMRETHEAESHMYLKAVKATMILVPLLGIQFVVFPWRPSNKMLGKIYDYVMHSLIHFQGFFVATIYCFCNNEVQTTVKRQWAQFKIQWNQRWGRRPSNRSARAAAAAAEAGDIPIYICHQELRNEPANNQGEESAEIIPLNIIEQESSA
How it was run: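 cAMP read-out by AlphaScreen after cell lysis; EC50 and % efficacy vs pramlintide from 4-parameter logistic fitting. Agonist stimulation: hCTR2-COS7 stable cells, 15 min, 37° C, 100 µM IBMX, 0.1% casein, Tyrode/HEPES pH 7.4.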

[2] = Solubility assessment (turbidity absorbance at 325 nm); format: physicochemical; settings: stock 2 mg/ml diluted 1:1, ambient temperature (typically 25°C), n=1; for Solubility, Acetate buffer pH 4: 100 mM acetate buffer pH 4.0; for Solubility, Acetate buffer pH 5: 100 mM acetate buffer pH 5.0; for Solubility, Histidine buffer pH 6: 100 mM histidine buffer pH 6.0; for Solubility, Histidine buffer pH 7: 100 mM histidine buffer pH 7.0; for Solubility, Phosphate buffer pH 6: 100 mM phosphate buffer pH 6.0; for Solubility, Phosphate buffer pH 7: 100 mM phosphate buffer pH 7.0; for Solubility, Phosphate buffer pH 7.5: 100 mM phosphate buffer pH7.5
How it was run: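 Turbidity read as absorbance at 325 nm (also 280 nm), single samples at ambient temperature (typically 25°C); ≤ 0.02 units counts as ≥ 1 mg/ml soluble. Samples made by 1:1 dilution of a 2 mg/ml acidic stock into 100 mM acetate, histidine or phosphate buffers, pH 4.0–7.5.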

Sprague Dawley (SD) rats = test: Acute food intake and body weight in normal Sprague Dawley rats; format: in vivo; settings: vehicle-corrected, dose 30 nmol/kg sc, once; for Body weight loss (%) after 96 hours: mean ± SEM, n = 8
How it was run: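 Normal male-unspecified SD rats, n = 8 per group, given a single s.c. peptide dose of 30 nmol/kg just before dark phase, with vehicle and positive control groups. Food intake recorded at 0, 4, 7, 10, 24, 48, 72 and 96 h; body weight daily; means ± SEM.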

Row | EC50 [1] [nM] | Solubility, Acetate buffer pH 4 [2] | Solubility, Acetate buffer pH 5 [2] | Solubility, Histidine buffer pH 6 [2] | Solubility, Histidine buffer pH 7 [2] | Solubility, Phosphate buffer pH 6 [2] | Solubility, Phosphate buffer pH 7 [2] | Solubility, Phosphate buffer pH 7.5 [2] | Compound | Food intake inhibition (%) after 48 hours (Sprague Dawley (SD) rats) [%] | Body weight loss (%) after 96 hours (Sprague Dawley (SD) rats) [%]
1 | 0.084 | II (II indicates solubility ≤ 1 mg/ml) | SS (SS indicates solubility ≥ 1mg/ml) | SS (SS indicates solubility ≥ 1mg/ml) | SS (SS indicates solubility ≥ 1mg/ml) | SS (SS indicates solubility ≥ 1mg/ml) | SS (SS indicates solubility ≥ 1mg/ml) | SS (SS indicates solubility ≥ 1mg/ml) | CC[C@H](C)[C@@H](C(=O)N[C@@H](CC(C)C)C(=O)N[C@@H](CO)C(=O)N[C@@H](CO)C(=O)N[C@H](C(=O)N[C@@H](CCC(=O)O)C(=O)N[C@H](C(=O)NCC(=O)N[C@@H](CO)C(=O)N[C@@H](CCC(=O)O)C(=O)N[C@H](C(=O)N1CCC[C@H]1C(N)=O)[C@@H](C)O)C(C)C)[C@@H](C)O)N(C)C(=O)[C@H](C)NC(=O)CN(C)C(=O)[C@H](Cc1ccccc1)NC(=O)[C@H](CO)NC(=O)[C@H](CO)NC(=O)[C@H](CCCNC(=N)N)NC(=O)[C@H](Cc1c[nH]cn1)NC(=O)[C@H](CC(C)C)NC(=O)[C@H](Cc1ccccc1)NC(=O)[C@H](CCC(=O)O)NC(=O)[C@H](C)NC(=O)[C@H](CC(C)C)NC(=O)[C@H](CCCNC(=N)N)NC(=O)[C@H](CCC(=O)O)NC(=O)[C@@H](NC(=O)[C@H](C)NC(=O)[C@@H]1CSSC[C@H](NC(=O)[C@H](Cc2c[nH]c3ccccc23)NC(=O)CC[C@H](NC(=O)CCCCCCCCCCCCCCCCCCC(=O)O)C(=O)O)C(=O)NCC(=O)N[C@@H]([C@@H](C)O)C(=O)N[C@@H](C)C(=O)N[C@@H]([C@@H](C)O)C(=O)N1)[C@@H](C)O [Compound 161, [19CD]-isoGlu-WC()GTATC()ATERLAEFLHRSSF-Gly(Me)-A-Ile(Me)-LSSTEVGSETP-NH2] ({C20 diacid-γGlu}-WCGTATCATERLAEFLHRSSF[Sar]A[NMeI]LSSTEVGSETP-NH2; disulfide 2-7) | 99 | 10 ± 2.7
2 | 0.049 | SS (SS indicates solubility ≥ 1mg/ml) | SS (SS indicates solubility ≥ 1mg/ml) | SS (SS indicates solubility ≥ 1mg/ml) | SS (SS indicates solubility ≥ 1mg/ml) | SS (SS indicates solubility ≥ 1mg/ml) | SS (SS indicates solubility ≥ 1mg/ml) | SS (SS indicates solubility ≥ 1mg/ml) | CC[C@H](C)[C@@H](C(=O)N[C@@H](CC(C)C)C(=O)N[C@@H](CO)C(=O)N[C@@H](CO)C(=O)N[C@H](C(=O)N[C@@H](CCC(=O)O)C(=O)N[C@H](C(=O)NCC(=O)N[C@@H](CO)C(=O)N[C@@H](CCC(=O)O)C(=O)N[C@H](C(=O)N1CCC[C@H]1C(N)=O)[C@@H](C)O)C(C)C)[C@@H](C)O)N(C)C(=O)[C@H](C)NC(=O)CN(C)C(=O)[C@H](Cc1ccccc1)NC(=O)[C@H](CO)NC(=O)[C@H](CO)NC(=O)[C@H](CCCNC(=N)N)NC(=O)[C@H](Cc1c[nH]cn1)NC(=O)[C@H](CC(C)C)NC(=O)[C@H](Cc1ccccc1)NC(=O)[C@H](CCC(=O)O)NC(=O)[C@H](C)NC(=O)[C@H](CC(C)C)NC(=O)[C@H](CCCNC(=N)N)NC(=O)[C@H](CCC(=O)O)NC(=O)[C@@H](NC(=O)[C@H](C)NC(=O)[C@@H]1CSSC[C@H](NC(=O)[C@H](CCCNC(=N)N)NC(=O)CC[C@H](NC(=O)CCCCCCCCCCCCCCCCCCC(=O)O)C(=O)O)C(=O)NCC(=O)N[C@@H]([C@@H](C)O)C(=O)N[C@@H](C)C(=O)N[C@@H]([C@@H](C)O)C(=O)N1)[C@@H](C)O [Compound 162, [19CD]-isoGlu-RC()GTATC()ATERLAEFLHRSSF-Gly(Me)-A-Ile(Me)-LSSTEVGSETP-NH2] ({C20 diacid-γGlu}-RCGTATCATERLAEFLHRSSF[Sar]A[NMeI]LSSTEVGSETP-NH2; disulfide 2-7) | 99 | 13 ± 2.2
3 | 0.074 | SS (SS indicates solubility ≥ 1mg/ml) | SS (SS indicates solubility ≥ 1mg/ml) | SS (SS indicates solubility ≥ 1mg/ml) | SS (SS indicates solubility ≥ 1mg/ml) | SS (SS indicates solubility ≥ 1mg/ml) | SS (SS indicates solubility ≥ 1mg/ml) | SS (SS indicates solubility ≥ 1mg/ml) | CC[C@H](C)[C@@H](C(=O)N[C@@H](CC(C)C)C(=O)N[C@@H](CO)C(=O)N[C@@H](CO)C(=O)N[C@H](C(=O)N[C@@H](CCC(=O)O)C(=O)N[C@H](C(=O)NCC(=O)N[C@@H](CO)C(=O)N[C@@H](CCC(=O)O)C(=O)N[C@H](C(=O)N1C[C@H](O)C[C@H]1C(N)=O)[C@@H](C)O)C(C)C)[C@@H](C)O)N(C)C(=O)[C@H](C)NC(=O)CN(C)C(=O)[C@H](Cc1ccccc1)NC(=O)[C@H](CO)NC(=O)[C@H](CO)NC(=O)[C@H](CCCNC(=N)N)NC(=O)[C@H](Cc1c[nH]cn1)NC(=O)[C@H](CC(C)C)NC(=O)[C@H](Cc1ccccc1)NC(=O)[C@H](CCC(=O)O)NC(=O)[C@H](C)NC(=O)[C@H](CC(C)C)NC(=O)[C@H](CCCNC(=N)N)NC(=O)[C@H](CCC(=O)O)NC(=O)[C@@H](NC(=O)[C@H](C)NC(=O)[C@@H]1CSSC[C@H](NC(=O)[C@H](CCCNC(=N)N)NC(=O)CC[C@H](NC(=O)CCCCCCCCCCCCCCCCCCC(=O)O)C(=O)O)C(=O)NCC(=O)N[C@@H]([C@@H](C)O)C(=O)N[C@@H](C)C(=O)N[C@@H]([C@@H](C)O)C(=O)N1)[C@@H](C)O [Compound 166, [19CD]-isoGlu-RC()GTATC()ATERLAEFLHRSSF-Gly(Me)-A-Ile(Me)-LSSTEVGSET-Hyp-NH2] ({C20 diacid-γGlu}-RCGTATCATERLAEFLHRSSF[Sar]A[NMeI]LSSTEVGSET[Hyp]-NH2; disulfide 2-7) | 99 | 12 ± 1.6
4 | 0.045 | SS (SS indicates solubility ≥ 1mg/ml) | SS (SS indicates solubility ≥ 1mg/ml) | SS (SS indicates solubility ≥ 1mg/ml) | SS (SS indicates solubility ≥ 1mg/ml) | SS (SS indicates solubility ≥ 1mg/ml) | SS (SS indicates solubility ≥ 1mg/ml) | SS (SS indicates solubility ≥ 1mg/ml) | CC[C@H](C)[C@@H](C(=O)N[C@@H](CC(C)C)C(=O)N[C@@H](CO)C(=O)N[C@@H](CO)C(=O)N[C@H](C(=O)N[C@@H](CC(=O)O)C(=O)N[C@H](C(=O)NCC(=O)N[C@@H](CO)C(=O)N[C@@H](CC(=O)O)C(=O)N[C@H](C(=O)N1CCC[C@H]1C(N)=O)[C@@H](C)O)C(C)C)[C@@H](C)O)N(C)C(=O)[C@H](C)NC(=O)CN(C)C(=O)[C@H](Cc1ccccc1)NC(=O)[C@H](CO)NC(=O)[C@H](CO)NC(=O)[C@H](CCCNC(=N)N)NC(=O)[C@H](Cc1c[nH]cn1)NC(=O)[C@H](CC(C)C)NC(=O)[C@H](Cc1ccccc1)NC(=O)[C@H](CCC(=O)O)NC(=O)[C@H](C)NC(=O)[C@H](CC(C)C)NC(=O)[C@H](CCCNC(=N)N)NC(=O)[C@H](CC(=O)O)NC(=O)[C@@H](NC(=O)[C@H](C)NC(=O)[C@@H]1CSSC[C@H](NC(=O)[C@H](CCCNC(=N)N)NC(=O)CC[C@H](NC(=O)CCCCCCCCCCCCCCCCCCC(=O)O)C(=O)O)C(=O)N2CCC[C@H]2C(=O)N[C@@H]([C@@H](C)O)C(=O)N[C@@H](C)C(=O)N[C@@H]([C@@H](C)O)C(=O)N1)[C@@H](C)O [Compound 172, [19CD]-isoGlu-RC()PTATC()ATDRLAEFLHRSSF-Gly(Me)-A-Ile(Me)-LSSTDVGSDTP-NH2] ({C20 diacid-γGlu}-RCPTATCATDRLAEFLHRSSF[Sar]A[NMeI]LSSTDVGSDTP-NH2; disulfide 2-7) | 99 | 13 ± 1.1
